ED50 and MIC data for 6 compounds are collected here from patent US5254577A, “Aminomethyloxooxazolidinyl arylbenzene derivatives useful as antibacterial agents” (The Du Pont Merck Pharmaceutical Company, priority 1992, dated 1993).

The test system of test [1] is Staphylococcus aureus. Description: In vivo activity against Staphylococcus aureus in an acute lethal mouse model. The following applies: Staphylococcus aureus, 168 h, mice infected intraperitoneally, dosed 1 h and 4 h post-infection, survivors on seventh day, read-out: ED50. On the procedure: The in vivo potency of these compounds is exemplified by the data summarized in Table X. Determinations of in vivo efficacy are performed by inoculating mice intraperitoneally with cultures of the infecting organism diluted to produce 100% mortality in control animals within twenty-four hours. The culture of S. aureus used to infect the animals was diluted to the required bacterial density using 5% aqueous hog gastric mucin. The compounds are dissolved or suspended in 0.25% aqueous Methocel® (Methocel®: Hydroxypropyl Methylcullulose, E15 Premium, Dow Chemical Company) for oral administration or sterile distilled water containing 5% dimethylsulfoxide (Fisher Scientific Company, Fairlawn, N.J.) for subcutaneous administration. The mice are dosed at one hour and at four hours post-infection. Mortality is recorded daily until test determination seven days post infection. The number of survivors in each treatment group on the seventh day after infection is used in the calculation of the ED50, the dose of compound that protects 50% of the mice (Litchfield,J. T. and Wildoxon. A simulated method for evaluating dose-effect experiments. J. Pharmacol Exp. Ther., 98:99-113, 1949).

The subject of a further test is Escherichia coli. Description: In vitro broth microdilution, 24-hour minimal inhibitory concentration (MIC). As to conditions: Mueller-Hinton broth, read-out: Minimum Inhibitory Concentration. Format: cell-based. From the text:
(§1) A standard microdilution method (National Committee for Clinical Standards. Tentative standard M7-T. Standard methods for dilution antimicrobial susceptibility tests for bacteria that grow aerobically. National Committee for Clinical Laboratory Standards, Villanova, Pa. 1982) with Mueller-Hinton broth is used to determine the 24-hour minimal inhibitory concentrations (MIC's) for test strains of Staphylococcus aureus and Escherichia coli.
(Broth dilution looks for growth in wells or tubes with falling amounts of substance.)

In test [2] the test system is Staphylococcus aureus. Described as above. Format: cell-based. The following applies: Mueller-Hinton broth, read-out: Minimum Inhibitory Concentration.
Excerpt: as §1

Where [3] appears, read: sc, Subcutaneous Administration.

Values after ≈ are worked out from the molar mass of the structure shown. Where a name gives a salt, the structure may show the parent alone. Read-outs that look alike come from different tables or passages of the source.

What is called ED50 is the dose at which the effect has come halfway, by size or by number of responders. In the case of `CC(=O)NC[C@H]1CN(c2ccc(-c3ccc(C(C)=NOC(=O)CCC(=O)O)cc3)cc2)C(=O)O1` [Example 23, Sodium Salt of Succinate Hemiester of (l)-N-[3-(4-(4'-(1-Hydroxyiminoethyl)phenyl)phenyl)-2-oxooxazolidin-5-ylmethyl]acetamide], the ED50 with Staphylococcus aureus [1] (Oral Administration) was 17.3 mg/kg; with Staphylococcus aureus [1] (setting [3]) it was 24.3 mg/kg. Moreover, the MIC was greater than 128 µg/mL in the test on Escherichia coli and 1 µg/mL in the test with Staphylococcus aureus [2].

As to `CC(=O)NC[C@H]1CN(c2ccc(-c3ccc(-c4nn[nH]n4)cc3)cc2)C(=O)O1` [Example 38, (l)-N-[3-(4-(4'-(5-Tetrazolyl)phenyl)phenyl)-2-oxooxazolidin-5-ylmethyl]acetamide], the ED50 in the test on Staphylococcus aureus [1] (setting [3]) is greater than 90 mg/kg. In addition, the MIC in the test with Escherichia coli was greater than 128 µg/mL; in the test on Staphylococcus aureus [2] it was 64 µg/mL (≈ 169 µM).

`CCCCNCc1ccc(-c2ccc(N3C[C@H](CNC(C)=O)OC3=O)cc2)cc1` [Example 45]: in the test with Staphylococcus aureus [1] (setting [3]), the ED50 was 13.9 mg/kg. Moreover, the MIC with Escherichia coli is greater than 128 µg/mL; with Staphylococcus aureus [2], 0.5 µg/mL (≈ 1.26 µM).

Turning to `CCCCN(CCCC)Cc1ccc(-c2ccc(N3C[C@H](CNC(C)=O)OC3=O)cc2)cc1` [Example 46], in the test with Staphylococcus aureus [1] (setting [3]), the ED50 stood at 30 mg/kg. Moreover, the results for the MIC in the test on Escherichia coli and with Staphylococcus aureus [2] were greater than 128 µg/mL and 4 µg/mL (≈ 8.86 µM), respectively.

Regarding `CC(=O)NC[C@H]1CN(c2ccc(-c3csc(C)n3)cc2)C(=O)O1` [Example 132], the ED50 in the test on Staphylococcus aureus [1] (setting [3]) was 17 mg/kg. The MIC with Escherichia coli was greater than 128 µg/mL; in the test with Staphylococcus aureus [2] it was 4 µg/mL (≈ 12.1 µM).

Consider `CCC(=O)c1ccc(-c2ccc(N3C[C@H](CNC(C)=O)OC3=O)cc2)cc1` [Example 7], for which the ED50 in the test with Staphylococcus aureus [1] (setting [3]) was 90 mg/kg. The MIC with Escherichia coli was greater than 128 µg/mL; in the test on Staphylococcus aureus [2] it was 2 µg/mL (≈ 5.46 µM).
